Measurements taken from patent publication US4678783A, “Substituted isoquinolinesulfonyl compounds” (Asahi Kasei Kogyo Kabushiki Kaisha, priority 1984, dated 1987).

Tested on: not listed separately
Assay: Acute Toxicity
Conditions: mouse, in vivo; ddY male mice
Procedure: Acute toxicity of the compounds of the present invention was determined according to the method given below, and the results are shown in Table 15. […] It is known from the results that the acute toxicity of the compounds of the present invention is satisfactorily low.
Using ddY male mice, acute toxicity of the compounds of the present invention was examined according to the method proposed by K. Takagi et al. (K. Takagi and H. Ozawa, "Experimental Techniques in Pharmacology," p200-206 (1960), NANZANDO CO., LTD.).
Acute toxicity test of the compounds of the present invention was effected according to the method as mentioned hereinbefore.

Structure (SMILES) | LD50 [mg/kg]
CC1CN(S(=O)(=O)c2cccc3cnccc23)CCCN1 (stereo not drawn) [(3), 1-(5-isoquinolinesulfonyl)-3-methylhomopiperazine] | 120
O=S(=O)(c1cccc2cnccc12)N1CCCNCC1 [Compound (1), 1-(5-isoquinolinesulfonyl)homopiperazine] | 73.5
O=S(=O)(c1cccc2cnccc12)N1CCNCC(Cc2ccccc2)C1 (stereo not drawn) [Compound (18), 1-(5-isoquinolinesulfonyl)-6-benzylhomopiperazine] | 197
N=C(N)NCCNS(=O)(=O)c1cccc2c(Cl)nccc12 [Compound (31), N-(2-guanidinoethyl)-1-chloro-5-isoquinolinesulfonamide] | 160
N=C(N)NCCNS(=O)(=O)c1cccc2c(O)nccc12 [Compound (54), N-(2-guanidinoethyl)-1-hydroxy-5-isoquinolinesulfonamide] | 135
O=S(=O)(c1cccc2c(O)nccc12)N1CCCNCC1 [Compound (83), 1-(1-hydroxy-5-isoquinolinesulfonyl)homopiperazine] | 145
O=S(=O)(c1cccc2cnccc12)N1CCNCC1 [compound 2, reference compound] | 29
N=C(N)NCCNS(=O)(=O)c1cccc2cnccc12 [compound 4, reference compound] | 48

Tested on: male spontaneously hypertensive rats (SHR)
Assay: Reduction of Blood Pressure (systolic, tail plethysmographic method, oral)
Format: in vivo, rat (SHR, Wister Kyoto)
Conditions: 100 mg/kg
Procedure: Male spontaneously hypertensive rats (SHR, Wister Kyoto) weighing 300 to 350 g were used. Systolic blood pressure was measured indirectly by the tail plethysmographic method in conscious SHR, just prior to, and 1, 2, 4 and 6 hours after oral administration of test drugs. Test drugs, dissolved in deionized water, were administered orally in a volume of 10 ml-solution/kg-rat. Reduction in systolic blood pressure (ΔP, mmHg) was calculated by substracting a systolic blood pressure after administration from that just prior to administration.
Effect of the compounds of the present invention on reduction of blood pressure was examined according to the method as mentioned hereinbefore.

Structure (SMILES) | ΔPmax (maximally reduced blood pressure) [mmHg]
CC1CN(S(=O)(=O)c2cccc3cnccc23)CCCN1 (stereo not drawn) [(3), 1-(5-isoquinolinesulfonyl)-3-methylhomopiperazine] | 65
O=S(=O)(c1cccc2cnccc12)N1CCCNCC1 [Compound (1), 1-(5-isoquinolinesulfonyl)homopiperazine] | 80
O=S(=O)(c1cccc2cnccc12)N1CCNCC(Cc2ccccc2)C1 (stereo not drawn) [Compound (18), 1-(5-isoquinolinesulfonyl)-6-benzylhomopiperazine] | 43
N=C(N)NCCNS(=O)(=O)c1cccc2c(Cl)nccc12 [Compound (31), N-(2-guanidinoethyl)-1-chloro-5-isoquinolinesulfonamide] | 40
N=C(N)NCCNS(=O)(=O)c1cccc2c(O)nccc12 [Compound (54), N-(2-guanidinoethyl)-1-hydroxy-5-isoquinolinesulfonamide] | 40
CN1CCN(S(=O)(=O)c2cccc3c(O)nccc23)CC1 [Compound (65), 1-(1-hydroxy-5-isoquinolinesulfonyl)-4-methylpiperazine] | 53
N=C(N)N1CCN(S(=O)(=O)c2cccc3c(O)nccc23)CC1 [Compound (66), 1-(1-hydroxy-5-isoquinolinesulfonyl)-4-amidinopiperazine] | 43
N=C(N)N1CCCN(S(=O)(=O)c2cccc3c(O)nccc23)CC1 [Compound (67), 1-(1-hydroxy-5-isoquinolinesulfonyl)-4-amidinohomopiperazine] | 44
CC1CN(C(=N)N)CCN1S(=O)(=O)c1cccc2c(O)nccc12 (stereo not drawn) [Compound (68), 1-(1-hydroxy-5-isoquinolinesulfonyl)-4-amidino-2-methylpiperazine] | 48
CC1CN(S(=O)(=O)c2cccc3c(O)nccc23)C(C)CN1C(=N)N (stereo not drawn) [Compound (69), 1-(1-hydroxy-5-isoquinolinesulfonyl)-4-amidino-2,5-dimethylpiperazine] | 51
CCCCCCNCCNS(=O)(=O)c1cccc2c(Cl)nccc12 [Compound (74), N-(2-hexylaminoethyl)-1-chloro-5-isoquinolinesulfonamide] | 45
O=S(=O)(c1cccc2c(Cl)nccc12)N1CCCNCC1 [Compound (76), 1-(1-chloro-5-isoquinolinesulfonyl)homopiperazine] | 60
CCCCCCNCCNS(=O)(=O)c1cccc2c(O)nccc12 [Compound (81), N-(2-hexylaminoethyl)-1-hydroxy-5-isoquinolinesulfonamide] | 54
O=S(=O)(c1cccc2c(O)nccc12)N1CCCNCC1 [Compound (83), 1-(1-hydroxy-5-isoquinolinesulfonyl)homopiperazine] | 42
O=S(=O)(c1cccc2cnccc12)N1CCNCC1 [compound 2, reference compound] | 11

Tested on: mesenteric artery of a rabbit
Assay: Relaxation of Mesenteric Artery (KCl-contracted spiral strip)
Parameters: species or system rabbit of Japanese local variety
Conditions: Oryctolagus cuniculus, read-out: ED50
Procedure: A rabbit of Japanese local variety weighing about 3 kg was subjected to blood-letting to death. Then, abdomen of the rabbit was dissected to pick up a mesenteric artery. […] Thus, the shrinkage and relaxation of the artery was ready to be measured as a load on the transducer. To the organ bath, KCl was added in an amount which makes the artery shrink at a half length that in 15 to 20 mM aqueous solution. Then, hydrochlorides of the compounds of the present invention were added to the organ bath to observe relaxation effect on the artery.
Effect of the compounds of the present invention on relaxation of mesenteric artery was examined according to the method as mentioned hereinbefore.

Structure (SMILES) | EC50 [µM]
O=S(=O)(c1cccc2c(O)nccc12)N1CCCNCC1 [Compound (83), 1-(1-hydroxy-5-isoquinolinesulfonyl)homopiperazine] | 3

Same assay, conditions: Oryctolagus cuniculus; concentration of the hydrochloride attaining 50% of complete relaxation; rabbit mesenteric artery contracted with KCl; read-out: ED50 (the source's name)

Structure (SMILES) | EC50 [µM]
CC1CN(S(=O)(=O)c2cccc3cnccc23)CCCN1 (stereo not drawn) [(3), 1-(5-isoquinolinesulfonyl)-3-methylhomopiperazine] | 1.6
O=S(=O)(c1cccc2cnccc12)N1CCCNCC1 [Compound (1), 1-(5-isoquinolinesulfonyl)homopiperazine] | 0.8
O=S(=O)(c1cccc2cnccc12)N1CCNCC(Cc2ccccc2)C1 (stereo not drawn) [Compound (18), 1-(5-isoquinolinesulfonyl)-6-benzylhomopiperazine] | 10
N=C(N)NCCNS(=O)(=O)c1cccc2c(Cl)nccc12 [Compound (31), N-(2-guanidinoethyl)-1-chloro-5-isoquinolinesulfonamide] | 2
N=C(N)NCCNS(=O)(=O)c1cccc2c(O)nccc12 [Compound (54), N-(2-guanidinoethyl)-1-hydroxy-5-isoquinolinesulfonamide] | 18
CN1CCN(S(=O)(=O)c2cccc3c(O)nccc23)CC1 [Compound (65), 1-(1-hydroxy-5-isoquinolinesulfonyl)-4-methylpiperazine] | 25
N=C(N)N1CCN(S(=O)(=O)c2cccc3c(O)nccc23)CC1 [Compound (66), 1-(1-hydroxy-5-isoquinolinesulfonyl)-4-amidinopiperazine] | 4
N=C(N)N1CCCN(S(=O)(=O)c2cccc3c(O)nccc23)CC1 [Compound (67), 1-(1-hydroxy-5-isoquinolinesulfonyl)-4-amidinohomopiperazine] | 6
CC1CN(C(=N)N)CCN1S(=O)(=O)c1cccc2c(O)nccc12 (stereo not drawn) [Compound (68), 1-(1-hydroxy-5-isoquinolinesulfonyl)-4-amidino-2-methylpiperazine] | 9
CC1CN(S(=O)(=O)c2cccc3c(O)nccc23)C(C)CN1C(=N)N (stereo not drawn) [Compound (69), 1-(1-hydroxy-5-isoquinolinesulfonyl)-4-amidino-2,5-dimethylpiperazine] | 8
CCCCCCNCCNS(=O)(=O)c1cccc2c(Cl)nccc12 [Compound (74), N-(2-hexylaminoethyl)-1-chloro-5-isoquinolinesulfonamide] | 2
O=S(=O)(c1cccc2c(Cl)nccc12)N1CCCNCC1 [Compound (76), 1-(1-chloro-5-isoquinolinesulfonyl)homopiperazine] | 2
CCCCCCNCCNS(=O)(=O)c1cccc2c(O)nccc12 [Compound (81), N-(2-hexylaminoethyl)-1-hydroxy-5-isoquinolinesulfonamide] | 6

Tested on: vertebral artery
Assay: Blood Flow Volume Increase of Vertebral Artery
Format: in vivo, Mongrel dogs
Conditions: intravenous, 0.3 mg/kg, anesthetized dogs
Procedure: (§1) A plethysmographic probe (manufactured and sold by NIHON KODEN CO., LTD.) was mounted on the femoral and vertebral arteries, and blood flow volume was measured by means of a electromagnetic blood flowmeter (type:MF-27, manufactured and sold by NIHON KODEN CO., LTD.). Under these conditions, compounds of the present invention were intravenously administered through a polyethylene tube inserted to a femoral veinlet, and change in blood flow volume was measured by means of the electromagnetic blood flowmeter.
(§2) Effect of the compounds of the present invention on dilation of femoral and vertebral arteries was examined according to the method as mentioned hereinbefore.

Structure (SMILES) | Increase in vertebral artery blood flow [%]
CC1CN(S(=O)(=O)c2cccc3cnccc23)CCCN1 (stereo not drawn) [(3), 1-(5-isoquinolinesulfonyl)-3-methylhomopiperazine] | 78
O=S(=O)(c1cccc2cnccc12)N1CCCNCC1 [Compound (1), 1-(5-isoquinolinesulfonyl)homopiperazine] | 160
O=S(=O)(c1cccc2cnccc12)N1CCNCC(Cc2ccccc2)C1 (stereo not drawn) [Compound (18), 1-(5-isoquinolinesulfonyl)-6-benzylhomopiperazine] | 110
O=S(=O)(c1cccc2c(O)nccc12)N1CCCNCC1 [Compound (83), 1-(1-hydroxy-5-isoquinolinesulfonyl)homopiperazine] | 48
O=S(=O)(c1cccc2cnccc12)N1CCNCC1 [compound 2, reference compound] | 36

Same assay, conditions: intravenous, 1 mg/kg, anesthetized dogs

Structure (SMILES) | Increase in vertebral artery blood flow [%]
O=S(=O)(c1cccc2cnccc12)N1CCNCC1 [compound 2, reference compound] | 98

Tested on: femoral artery
Assay: Blood Flow Volume Increase of Femoral Artery
Format: in vivo, Mongrel dogs
Conditions: intravenous, 0.3 mg/kg, anesthetized dogs
Procedure: as §1, §2

Structure (SMILES) | Increase in femoral artery blood flow [%]
CC1CN(S(=O)(=O)c2cccc3cnccc23)CCCN1 (stereo not drawn) [(3), 1-(5-isoquinolinesulfonyl)-3-methylhomopiperazine] | 35
O=S(=O)(c1cccc2cnccc12)N1CCCNCC1 [Compound (1), 1-(5-isoquinolinesulfonyl)homopiperazine] | 48
O=S(=O)(c1cccc2cnccc12)N1CCNCC(Cc2ccccc2)C1 (stereo not drawn) [Compound (18), 1-(5-isoquinolinesulfonyl)-6-benzylhomopiperazine] | 45
O=S(=O)(c1cccc2c(O)nccc12)N1CCCNCC1 [Compound (83), 1-(1-hydroxy-5-isoquinolinesulfonyl)homopiperazine] | 30
O=S(=O)(c1cccc2cnccc12)N1CCNCC1 [compound 2, reference compound] | 20

Same assay, conditions: intravenous, 1 mg/kg, anesthetized dogs

Structure (SMILES) | Increase in femoral artery blood flow [%]
O=S(=O)(c1cccc2cnccc12)N1CCNCC1 [compound 2, reference compound] | 69

Tested on: basilar artery
Assay: Effect on a "Two-Hemorrhage" Canine Model of Delayed Cerebral Vasospasm
Format: in vivo, Mongrel dogs
Conditions: 1 mg/kg, intravenous infusion over 30 minutes on Day 7
From the text: The isoquinolinesulfonyl compound represented by the formula (I) and salt thereof with a pharmacologically acceptable acid according to the present invention can increase the diameter of a blood vessel, and have an excellent smooth muscle relaxation action for a blood vessel, an excellent flow volume increase action for blood and an antihypertensive action. […] The above-mentioned relaxation action for a blood vessel was confirmed by the relaxation of the mesenteric artery of a rabbit in accordance with the method described later. The above-mentioned flow volume increase action for blood was confirmed by the blood flow volume increase of dog's femoral and vertebral arteries in accordance with the method described later. The above-mentioned antihypertensive action was confirmed by the indirect tail plethysmographic method of systolic blood pressure after oral administration of test drugs using male spontaneously hypertensive rats in accordance with the method described later. The effects of the isoquinolinesulfonyl derivatives of this invention on a "two-hemorrhage" canine model of delayed cerebral vasospasm were examined. The method of inducing a cerebral vasospasm was the same as that reported by Varsos et al. (Journal of Neurosurgery, volume 58, p11-17, 1983). […] As far as is known, these isoquinolinesulfonyl derivatives are the first drugs which can reverse "two-hemorrhage" cerebral vasospasm by its systemic use.
Mongrel dogs of either sex weighing 7 to 11 kg were used. All procedures were performed under anesthesia with sodium pentobarbital (20 to 30 mg/kg, intravenous administration) after premedication with ketamine hydrochloride (12 mg/kg, intramuscular administration) and spontaneous respiration through an endotracheal intubation.
The method of inducing a "two-hemorrhage" canine model of subarachnoid hemorrhage was essentially the same as that reported by Varsos et al. (Journal of Neurosurgery, volume 58, p 11-17, 1983); two successive administrations were effected, two days apart (on Day 1 and Day 3), of fresh autogenous blood into the cisterna magna. A control angiogram was taken by a direct puncture of the vertebral artery on Day 1 before the blood injection. The second angiogram was made to confirm the presence of a vasospasm on Day 7.
On Day 7, after the occurrence of a chronic vasospasm was confirmed by the second angiogram, the compounds of the present invention were intrvenously infused from the femoral vein with a Harvard pump over a period of 30 minutes. Angiograms were taken from the initiation of the infusion.
The diameter of the basilar artery was measured on the angiogram by means of a microdensitometer (SAKURA DENSITOMETER PD-7R). The effect on this cerebral vasospasm model of the compounds of the present invention was expressed as an increased percentage of the diameter after the infusion of the compounds of the present invention to that before the infusion.
Effect of the compounds of the present invention on a "two-hemorrhage" canine model of delayed cerebral vesospasm was examined according to the method as mentioned hereinbefore.

Structure (SMILES) | Increase in diameter of basilar artery [%]
O=S(=O)(c1cccc2cnccc12)N1CCCNCC1 [Compound (1), 1-(5-isoquinolinesulfonyl)homopiperazine] | 21

Same assay, conditions: 3 mg/kg, intravenous infusion over 30 minutes on Day 7

Structure (SMILES) | Increase in diameter of basilar artery [%]
O=S(=O)(c1cccc2cnccc12)N1CCCNCC1 [Compound (1), 1-(5-isoquinolinesulfonyl)homopiperazine] | 33
O=S(=O)(c1cccc2c(O)nccc12)N1CCCNCC1 [Compound (83), 1-(1-hydroxy-5-isoquinolinesulfonyl)homopiperazine] | 19

Same assay, conditions: 10 mg/kg, intravenous infusion over 30 minutes on Day 7

Structure (SMILES) | Increase in diameter of basilar artery [%]
O=S(=O)(c1cccc2cnccc12)N1CCCNCC1 [Compound (1), 1-(5-isoquinolinesulfonyl)homopiperazine] | 45
O=S(=O)(c1cccc2c(O)nccc12)N1CCCNCC1 [Compound (83), 1-(1-hydroxy-5-isoquinolinesulfonyl)homopiperazine] | 20
